Test results: patent publication US8946438B2, “Benzamides, production thereof, and use thereof as medicaments” (Boehringer Ingelheim International GmbH, priority 2008, dated 2015)

Molecular target: p38 MAP-kinase (Homo sapiens, UniProt Q16539)
Test: Enzymatic assay: inhibition of p38 MAP-kinase (phosphorylation of GST-tagged ATF2, chemoluminescence bead readout)
Assay type: biochemical
Conditions: inhibitor 1 μM; activated p38 MAP-kinase 1 nM; 4 h preincubation; ATP 100 μM; ATF2 10 nM; read-out: % inhibitory effect at 1 μM
Experimental: In this, the amount of a substrate phosphorylated by the kinase is quantified. The test is carried out as follows:
The kinase reaction is carried out in the presence of HEPES (20 mM, pH 7), MgCl2 (10 mM), DTT (1 mM) and TWEEN20 (0.01%). First, dimethylsulphoxide or inhibitor (final concentration: 1 μM) dissolved in dimethylsulphoxide are placed in a reaction vessel. Then the activated p38 MAP-kinase (final concentration 1 nM) is added and the mixture is incubated for 4 h at ambient temperature. Then a mixture of substrate (GST-tagged ATF2) and ATP is added and everything is incubated together for a further hour (final concentration ATP: 100 μM; final concentration ATF2: 10 nM).
The concentration of phosphorylated ATF2 is quantified by chemoluminescence-induced light emission. For this, a glutathione donor bead (final concentration: 5 μg/ml) which binds to the gluthathione on the ATF2 and phospho-ATF2 antibodies are added to the reaction mixture (final concentration: 3 nM; this binds the phosphate group added by the kinase reaction) to which a Protein A Acceptor Bead (final concentration: 5 μg/ml) binds. These components are dissolved in a buffer which contains 20 mM HEPES pH 7.0, 200 mM NaCL, 80 mM EDTA as well as 0.3% BSA. This reaction mixture is incubated in the dark for 1 hour at ambient temperature. When these beads come physically close, visible light is emitted which is measured in a photometer at 520-620 nm.
To determine the inhibitory activity of the compounds according to the invention a calculation is made to determine the percentage by which the kinase activity is inhibited at a fixed inhibitor concentration of 1 μM. The maximum activity is determined by non-inhibited kinase. The minimum activity or nonspecific background activity is determined using a reaction mixture without kinase. […] Table 2 summarises the degree of inhibition of the enzyme p38 MAP-kinase—as described hereinbefore—of the compounds according to the invention detailed in the section “Preparation of the final compounds”.

Chain of p38 MAP-kinase (Q16539 whole entry): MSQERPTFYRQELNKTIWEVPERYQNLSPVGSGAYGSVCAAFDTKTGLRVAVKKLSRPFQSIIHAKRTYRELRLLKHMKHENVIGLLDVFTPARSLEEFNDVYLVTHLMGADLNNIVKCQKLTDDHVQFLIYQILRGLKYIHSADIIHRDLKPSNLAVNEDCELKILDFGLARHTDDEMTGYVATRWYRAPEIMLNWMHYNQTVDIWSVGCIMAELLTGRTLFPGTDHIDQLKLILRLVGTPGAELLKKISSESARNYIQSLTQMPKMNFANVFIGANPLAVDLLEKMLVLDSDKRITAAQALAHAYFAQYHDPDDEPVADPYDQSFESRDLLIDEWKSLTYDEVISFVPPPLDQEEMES

Structure (SMILES)	inhibition at 1 µM [%]
COc1c(NC(=O)c2ccc(Cl)c(Oc3ccnc(CC4CCNCC4)n3)c2)cc(C(C)(C)C)cc1NS(C)(=O)=O [5(30), N-(5-tert-butyl-3-methanesulphonylamino-2-methoxy-phenyl)-4-chloro-3-(2-piperidin-4-ylmethyl-pyrimidin-4-yloxy)-benzamide]	99
COc1c(NC(=O)c2ccc(Cl)c(Oc3ccnc(NC4CCNCC4)c3)c2)cc(C(C)(C)C)cc1NS(C)(=O)=O [5(31), N-(5-tert-butyl-3-methanesulphonylamino-2-methoxy-phenyl)-4-chloro-3-[2-(piperidin-4-ylamino)-pyridin-4-yloxy]-benzamide]	99.4
COc1c(NC(=O)c2ccc(Cl)c(Oc3cc(CN4CCNCC4)ncn3)c2)cc(C(C)(C)C)cc1NS(C)(=O)=O [5(32), N-(5-tert-butyl-3-methanesulphonylamino-2-methoxy-phenyl)-4-chloro-3-(6-piperazin-1-ylmethyl-pyrimidin-4-yloxy)-benzamide]	97.9
COc1c(NC(=O)c2ccc(Cl)c(Oc3cc(CC4CCNCC4)ncn3)c2)cc(C(C)(C)C)cc1NS(C)(=O)=O [5(33), N-(5-tert-butyl-3-methanesulphonylamino-2-methoxy-phenyl)-4-chloro-3-(6-piperidin-4-ylmethyl-pyrimidin-4-yloxy)-benzamide]	99.2
COc1c(NC(=O)c2ccc(Cl)c(Oc3ccnc(CN4CCNCC4)c3)c2)cc(C(C)(C)C)cc1NS(C)(=O)=O [5(34), N-(5-tert-butyl-3-methanesulphonylamino-2-methoxy-phenyl)-4-chloro-3-(2-piperazin-1-ylmethyl-pyridin-4-yloxy)-benzamide]	99.1
COc1c(NC(=O)c2ccc(Cl)c(Oc3ccnc(CN4CCNCC4)n3)c2)cc(C(C)(C)C)cc1NS(C)(=O)=O [5(35), N-(5-tert-butyl-3-methanesulphonylamino-2-methoxy-phenyl)-4-chloro-3-(2-piperazin-1-ylmethyl-pyrimidin-4-yloxy)-benzamide]	98.3
COc1c(NC(=O)c2ccc(Cl)c(Oc3cc(CN4CCCNCC4)ncn3)c2)cc(C(C)(C)C)cc1NS(C)(=O)=O [5(36), N-(5-tert-butyl-3-methanesulphonylamino-2-methoxy-phenyl)-4-chloro-3-(6-[1,4]diazepan-1-ylmethyl-pyrimidin-4-yloxy)-benzamide]	99.3
COc1c(NC(=O)c2ccc(Cl)c(Oc3ccnc(CN4CCCNCC4)c3)c2)cc(C(C)(C)C)cc1NS(C)(=O)=O [5(37), N-(5-tert-butyl-3-methanesulphonylamino-2-methoxy-phenyl)-4-chloro-3-(2-[1,4]diazepan-1-ylmethyl-pyridin-4-yloxy)-benzamide]	99.3
COc1c(NC(=O)c2ccc(C)c(Oc3ccnc(CC4CCNCC4)n3)c2)cc(C(C)(C)C)cc1S(C)(=O)=O [5(38), N-(5-tert-butyl-3-methanesulphonyl-2-methoxy-phenyl)-4-methyl-3-(2-piperidin-4-ylmethyl-pyrimidin-4-yloxy)-benzamide]	98.8
COc1c(NC(=O)c2ccc(C)c(Oc3ccnc(CN4CCCNCC4)c3)c2)cc(C(C)(C)C)cc1S(C)(=O)=O [5(39), N-(5-tert-butyl-3-methanesulphonyl-2-methoxy-phenyl)-3-(2-[1,4]diazepan-1-ylmethyl-pyridin-4-yloxy)-4-methyl-benzamide]	99.4
COc1c(CSC)cc(C(C)(C)C)cc1NC(=O)c1ccc(C)c(Oc2ccnc(CC3CCNCC3)c2)c1 [5(40), N-(5-tert-butyl-2-methoxy-3-methylsulphanylmethyl-phenyl)-4-methyl-3-(2-piperidin-4-ylmethyl-pyridin-4-yloxy)-benzamide]	99.5
COc1c(CS(C)(=O)=O)cc(C(C)(C)C)cc1NC(=O)c1ccc(C)c(Oc2ccnc(CC3CCNCC3)c2)c1 [5(41), N-(5-tert-butyl-3-methanesulphonylmethyl-2-methoxy-phenyl)-4-methyl-3-(2-piperidin-4-ylmethyl-pyridin-4-yloxy)-benzamide]	99.6
COc1c(C[S+](C)[O-])cc(C(C)(C)C)cc1NC(=O)c1ccc(C)c(Oc2ccnc(CC3CCNCC3)c2)c1 (stereo not shown) [5(42), N-(5-tert-butyl-2-methoxy-3-methylsulphinylmethyl-phenyl)-4-methyl-3-(2-piperidin-4-ylmethyl-pyridin-4-yloxy)-benzamide]	99.5
COc1c(NC(=O)c2ccc(C)c(Oc3ccnc(CC4CCNCC4)c3)c2)cc(C(C)(C)C)cc1NC(=O)C1CC1 [5(43), N-[5-tert-butyl-3-(cyclopropanecarbonyl-amino)-2-methoxy-phenyl]-4-methyl-3-(2-piperidin-4-ylmethyl-pyridin-4-yloxy)-benzamide]	98.6
Cc1ccc(C(=O)Nc2cc(C(C)(C)C)cc(NS(C)(=O)=O)c2OC(C)C)cc1Oc1ccnc(CC2CCNCC2)c1 [5(44), N-(5-tert-butyl-2-isopropoxy-3-methanesulphonylamino-phenyl)-4-methyl-3-(2-piperidin-4-ylmethyl-pyridin-4-yloxy)-benzamide]	93.2
CCOc1c(NC(=O)c2ccc(C)c(Oc3ccnc(CC4CCNCC4)c3)c2)cc(C(C)(C)C)cc1NS(C)(=O)=O [5(45), N-(5-tert-butyl-2-ethoxy-3-methanesulphonylamino-phenyl)-4-methyl-3-(2-piperidin-4-ylmethyl-pyridin-4-yloxy)-benzamide]	99.6
COc1c(NC(=O)c2ccc(C)c(Oc3ccnc(CC4CCNCC4)c3)c2)cc(C(C)(C)C)cc1NS(=O)(=O)CC(C)C [5(46), N-[5-tert-butyl-2-methoxy-3-(2-methyl-propane-1-sulphonylamino)-phenyl]-4-methyl-3-(2-piperidin-4-ylmethyl-pyridin-4-yloxy)-benzamide]	99.6
COc1c(NC(=O)c2ccc(C)c(Oc3ccnc(CC4CCNCC4)c3)c2)cc(C(C)(C)C)cc1NC(=O)C(C)C [5(47), N-(5-tert-butyl-3-isobutyrylamino-2-methoxy-phenyl)-4-methyl-3-(2-piperidin-4-ylmethyl-pyridin-4-yloxy)-benzamide]	97.3
COc1c(NC(=O)c2ccc(C)c(Oc3ccnc(CC4CCNCC4)c3)c2)cc(C(C)(C)C)cc1[S+](C)[O-] (stereo not shown) [5(48), N-(5-tert-butyl-3-methanesulphinyl-2-methoxy-phenyl)-4-methyl-3-(2-piperidin-4-ylmethyl-pyridin-4-yloxy)-benzamide]	99.4
COc1c(NC(=O)c2ccc(C)c(Oc3ccnc(CC4CCNCC4)c3)c2)cc(C(F)(F)F)cc1NS(C)(=O)=O [5(49), N-(3-methanesulphonylamino-2-methoxy-5-trifluoromethyl-phenyl)-4-methyl-3-(2-piperidin-4-ylmethyl-pyridin-4-yloxy)-benzamide]	99.2
COc1c(NC(=O)c2ccc(C)c(Oc3ccnc(CC4CCNCC4)c3)c2)cc(C(C)(C)C)cc1NS(=O)(=O)C(C)C [5(50), N-[5-tert-butyl-2-methoxy-3-(propane-2-sulphonylamino)-phenyl]-4-methyl-3-(2-piperidin-4-ylmethyl-pyridin-4-yloxy)-benzamide]	99.6
COc1c(NC(=O)c2ccc(C)c(Oc3ccnc(CC4CCCNCC4)c3)c2)cc(C(C)(C)C)cc1NS(C)(=O)=O (stereo not shown) [5(52), 3-(2-azepan-4-ylmethyl-pyridin-4-yloxy)-N-(5-tert-butyl-3-methanesulphonylamino-2-methoxy-phenyl)-4-methyl-benzamide]	99.5
